This note sets out measurements from patent publication US20250144066A1, “Prevention and Treatment of Parasitic Infections” (priority 2017, published 2025).

For data set [1], the system named is Respiratory syncytial virus A2. The data set is described as follows: microbe, parasite or virus in culture. It counts as cell-based.
The nature of data set [2]: in vitro. As to conditions: African green monkey.
Data set [3] concerns Influenza A virus H1N1 California/07/2009. The data set is described as follows: microbe, parasite or virus in culture. It is filed as cell-based.
The nature of data set [4]: in vitro. The settings on record: African green monkey. The source holds these as a separate data set.
Another data set relates to Lassa fever virus Josiah. The data set is described as follows: organism not typed. As to conditions: Vero. It is filed as cell-based.
Data set [5] concerns Rift Valley fever virus MP-12. Put plainly: microbe, parasite or virus in culture. It is filed as cell-based.
The nature of data set [6]: in vitro. The settings on record: dog.
The test system of data set [7] is Zika Virus. The data set is described as follows: Zika virus CPE inhibition (Neutral Red), Vero 76, secondary (Zika-094). It counts as cell-based. As to conditions: Neutral Red (Cytopathic effect), MR766. (Damage to the host cells serves as the signal in cytopathic effect assays.)
Data set [8] is described as follows: Toxicity in Vero 76 cells, primary screen (Zika-089). The settings on record: monkey, Vero 76 cells.
Data set [9] can be described thus: Neutral Red toxicity in Vero 76 cells, secondary (Zika-094). The settings on record: monkey, Vero 76 cells.
The test system of data set [10] is Zika Virus. Put plainly: Zika virus cytopathic effect (CPE) inhibition, Vero 76, primary screen (Zika-089). It counts as cell-based. As to conditions: Zika virus, MR766, Vero 76, primary.
Data set [11] relates to Zika Virus. The data set is described as follows: Zika virus CPE inhibition (Neutral Red), Huh7, secondary (Zika-094). It is filed as cell-based. The settings on record: Huh-7, Neutral Red (Cytopathic effect), MR766, Huh7, secondary, read-out: EC50.
Data set [12] in a line: Neutral Red toxicity in Huh7 cells, secondary (Zika-094). As to conditions: human.
Data set [13] deals with Zika Virus. Put plainly: Zika virus yield reduction (VYR), Vero 76, secondary (Zika-094). It counts as cell-based. The settings on record: Visual (Virus yield reduction), MR766.
Data set [14] deals with Zika Virus. The data set is described as follows: Zika virus yield reduction (VYR), Huh7, secondary (Zika-094). It counts as cell-based. As to conditions: Huh-7, Visual (Virus yield reduction), MR766.
For data set [15], the system named is Zika Virus. The data set is described as follows: Zika prevention, CPE inhibition (Neutral Red), Vero 76, 24 h pre-incubation (Zika-138). It is filed as cell-based. As to conditions: Neutral Red (Cytopathic effect), pre-incubated 24 hours prior to infection.
Data set [16] relates to Zika Virus. Put plainly: Zika prevention, CPE inhibition (Neutral Red), Huh7, 4 h pre-incubation (Zika-138). It is filed as cell-based. As to conditions: Neutral Red (Cytopathic effect), pre-incubated 4 hours prior to infection.
The test system of data set [17] is Zika Virus. Put plainly: Zika prevention, virus yield reduction (VYR), Huh7, 24 h pre-incubation (Zika-138). It counts as cell-based. The settings on record: Visual (Virus yield reduction); Huh7; pre-incubated 24 hours prior to infection. The method, then: (§1) An experiment was carried out as specified in Example 8. In a Zika Prevention Trial, MPA was pre-incubated with human cells 4 hours or 24 hours before Zika virus infection.

Data set [18] deals with Zika Virus. The data set is described as follows: Zika prevention, CPE inhibition (Neutral Red), Vero 76, 4 h pre-incubation (Zika-138). It is filed as cell-based. The settings on record: Neutral Red (Cytopathic effect), pre-incubated 4 hours prior to infection.
Data set [19] concerns Vero 76.
Data set [20] has as its system Zika Virus. The data set is described as follows: Zika prevention, CPE inhibition (Neutral Red), Huh7, 24 h pre-incubation (Zika-138). It is filed as cell-based. As to conditions: Neutral Red (Cytopathic effect), pre-incubated 24 hours prior to infection.
The subject of data set [21] is Zika Virus. The data set is described as follows: Zika prevention, virus yield reduction (VYR), Huh7, 4 h pre-incubation (Zika-138). It is filed as cell-based. As to conditions: Visual (Virus yield reduction); Huh7; pre-incubated 4 hours prior to infection. The procedure:
as §1

In data set [22] the test system is Zika Virus. Put plainly: Zika prevention, virus yield reduction (VYR), Vero 76, 4 h pre-incubation (Zika-138). It counts as cell-based. The settings on record: Visual (Virus yield reduction), pre-incubated 4 hours prior to infection.
Data set [23] concerns Zika Virus. Put plainly: Zika prevention, virus yield reduction (VYR), Vero 76, 24 h pre-incubation (Zika-138). As to conditions: Visual (Virus yield reduction), pre-incubated 24 hours prior to infection. It counts as cell-based.
The subject of data set [24] is Vero 76. The source holds these as a separate data set.
Data set [25] deals with HG23. The data set is described as follows: NR toxicity in HG23 cells (17-14). It counts as cell-based. As to conditions: NR (Tox). An excerpt:
(§2) Secondary testing was done with human norovirus.

Data set [26] has as its system human norovirus (NV, GT1). Put plainly: Human norovirus replicon, qPCR, HG23, secondary (17-14). It is filed as cell-based.
Source text: as §2
A general note: Replicon systems follow genome replication, usually without infectious particles.

The test system of another data set is mouse norovirus (MNV-1). The data set is described as follows: Mouse norovirus CPE inhibition (NR), RAW264.7 (17-09). It is filed as cell-based.
For data set [27], the system named is human norovirus (NV, GT1). Put plainly: Human norovirus replicon, RNA Hybridization, HG23, primary (16-21). It counts as cell-based. The settings on record: RNA Hybridization (Replicon), NV GT1, HG23.
Source text: as §2

Data set [28] concerns HG23. The data set is described as follows: RNA Hybridization toxicity in HG23 cells (16-21). It counts as cell-based.
Source text: as §2

Data set [29] relates to influenza A/California/04/2009 (H1N1pdm). Put plainly: Mycophenolate mofetil in influenza-infected mice on standard or low nucleotide diet (Example 19). It counts as in vivo, C57BL/6 mice. As to conditions: for Mean Day of Death (MDD) vs placebo: standard diet.
Data set [30] is described as follows: Cell Titer-Glo toxicity in C-33A cells (HPV16-15). The settings on record: human, C-33A cells.
The test system of data set [31] is influenza A/California/04/2009 (H1N1pdm). The data set is described as follows: Oseltamivir with control or low guanosine diet in influenza-infected mice (Example 15). It counts as in vivo, C57BL/6 mice. As to conditions: oseltamivir IP, BID for five days from four hours pre-infection.
Another data set has as its system A549. Put plainly: Toxicity in A549 cells (ADV-0172). It is filed as cell-based.
In the next data set the test system is Adenovirus5 Adenoid75. The data set is described as follows: Adenovirus 5 CPE inhibition, A549 (ADV-0172). It is filed as cell-based. The settings on record: A549.

SMILES strings stand for the structures. pEC50: −log10 of the molar value. Converted amounts (≈) assume the structure as drawn. “Also recorded” adds a separate entry of the source. Like-named read-outs stand apart in the source and are kept apart here.

A word on the EC50: it is the concentration giving half of the maximal effect. Usually pEC50 stands for −log10 of the EC50, conventionally taken in molar units. `NC(=O)c1ncn([C@@H]2O[C@H](CO)[C@@H](O)[C@H]2O)n1` [Ribavirin]: the EC50 was 12 µg/mL (≈ 49.1 µM) in data set [1]; 7.6 µg/mL (≈ 31.1 µM) in data set [1] (human respiratory syncytial virus, MA104); 12 µg/mL (≈ 49.1 µM) in data set [5]; 11 µg/mL (≈ 45 µM) in [5] (Rift Valley fever virus, Vero 76). Besides, the CC50 in “in vitro [2]” is greater than 100 µM; in the data set “in vitro [4]”, greater than 1000 µg/mL; in “in vitro [6]”, greater than 320 µM. Besides, the pEC50 is 5.39 in data set [3]; 5.43 in [3] (Influenza A virus, H1N1, MDCK); 4.49 in the data set with Lassa fever virus Josiah.
One may read the EC90 as the concentration needed for an effect of 90%. For the compound `O=c1cnn([C@@H]2O[C@H](CO)[C@@H](O)[C@H]2O)c(=O)[nH]1` [6-Azauridine], the EC50 worked out at 0.37 µg/mL (≈ 1.51 µM) with Zika Virus [7]; 0.35 µg/mL (≈ 1.43 µM) in the data set with Zika Virus [10] (Vero 76, Neutral Red (Cytopathic effect)); 0.32 µg/mL (≈ 1.31 µM) in the data set on Zika Virus [10] (Vero 76, Visual (Cytopathic effect)); 1.2 µg/mL (≈ 4.89 µM) with Zika Virus [11]. Besides, the CC50 in [8] (CC50, Neutral Red (Toxicity)) was 83.3 µg/mL (≈ 340 µM); in data set [8] (CC50, Visual (Toxicity)), greater than 100 µg/mL; in [9] it was 9.9 µg/mL (≈ 40.4 µM); in [12], greater than 100 µg/mL. Moreover, the EC90 was 1.3 µg/mL (≈ 5.3 µM) in the data set on Zika Virus [13] and 27.4 µg/mL (≈ 112 µM) with Zika Virus [14].
For `C#C[C@@]1(O)[C@H](O)[C@@H](CO)O[C@H]1n1ccc2c(N)ncnc21` [NITD008], the EC50 in the data set with Zika Virus [15] worked out at 5.1 µg/mL (≈ 17.6 µM); in the data set on Zika Virus [16], 1.1 µg/mL (≈ 3.79 µM); in the data set with Zika Virus [18] it was 8.3 µg/mL (≈ 28.6 µM); in the data set on Zika Virus [20] it was 0.77 µg/mL (≈ 2.65 µM). The EC90 in the data set on Zika Virus [17] came out at 1.0 µg/mL (≈ 3.44 µM); in the data set with Zika Virus [21] it was 0.61 µg/mL (≈ 2.1 µM); in the data set on Zika Virus [22], 7.81 µg/mL (≈ 26.9 µM); in the data set on Zika Virus [23], 31.62 µg/mL (≈ 109 µM). Besides, the CC50 in the data set with Vero 76 [19] and with Vero 76 [24] was greater than 100 µg/mL each time.
For the compound `C[C@@]1(O)[C@H](O)[C@@H](CO)O[C@H]1n1ccc(N)nc1=O` [2′C-methyl cytidine], the CC50 was 51 µM in the data set with RAW264.7, greater than 300 µM in the data set on HG23 [25] and greater than 300 µM in the data set with HG23 [28]. The pEC50 was 5.22 in [26], 6.00 in the data set with mouse norovirus (MNV-1) and 5.18 in [27] (read-out: EC50). Moreover, the EC90 worked out at 18 µM in [26], 3.2 µM in the data set with mouse norovirus (MNV-1) and 17 µM in data set [27] (read-out: EC90).
Consider `COc1c(C)c2c(c(O)c1C/C=C(\C)CCC(=O)OCCN1CCOCC1)C(=O)OC2` [MMF, 2-morpholinoethyl ester of mycophenolic acid], for which, in data set [29] (low nucleotide diet, MMF 4 mg/kg/day bid for 6 days beginning 4 h pre-infection), the “protection (survival) vs placebo” value was “significant (P<0.05) protection; also recorded: improved survival outcome”. The “Mean Day of Death (MDD) vs placebo” value in [29] (MMF 4 mg/kg/day PO bid for 6 days) and in data set [29] (MMF 40 mg/kg/day PO bid for 6 days) was “significantly (P<0.05) increased” throughout.
In data set [30], `Nc1nc2c(ncn2CCOCP(=O)(O)O)c(=O)[nH]1` [9-[2-(phosphonomethoxy)ethyl]guanine] yielded a CC50 of 141 µM.
Consider `CCOC(=O)C1=C[C@@H](OC(CC)CC)[C@H](NC(C)=O)[C@@H](N)C1` [Oseltamivir, oseltamivir], for which the “survival at 21 days post-infection” value in [31] (Group A, control diet (Harlan mouse lab diet)) is 40%; in data set [31] (Group B, low guanosine diet (Purina Mills #5755)), 100%.
As for `Nc1ccn([C@H]2CC[C@@H](CO)O2)c(=O)n1` [2,3-Dideoxycytidine], the CC50 with A549 (Neutral Red (Toxicity)) and in the data set on A549 (Visual (Toxicity)) was greater than 100 µg/mL in each case. In addition, the EC50 with Adenovirus5 Adenoid75 (Neutral Red (Cytopathic effect)) and with Adenovirus5 Adenoid75 (Visual (Cytopathic effect)) was 3.2 µg/mL (≈ 15.2 µM) throughout.
